Measured values published in US8853391B2, “Tricyclic azaindoles” (Merck Patent GmbH, priority 2008, dated 2014).

Target: Src (Homo sapiens, UniProt P12931)
Assay: Src kinase inhibition (IC50)
Format: biochemical
From the text: Other assays are known from the literature and could readily be performed by the person skilled in the art (see, for example, Dhanabal et al., Cancer Res. 59:189-197; Xin et al., J. Biol. Chem. 274:9116-9121; Sheu et al., Anticancer Res. 18:4435-4441; Ausprunk et al., Dev. Biol. 38:237-248; Gimbrone et al., J. Natl. Cancer Inst. 52:413-427; Nicosia et al., In Vitro 18:538-549).

Sequence of Src (P12931 whole entry, species assumed): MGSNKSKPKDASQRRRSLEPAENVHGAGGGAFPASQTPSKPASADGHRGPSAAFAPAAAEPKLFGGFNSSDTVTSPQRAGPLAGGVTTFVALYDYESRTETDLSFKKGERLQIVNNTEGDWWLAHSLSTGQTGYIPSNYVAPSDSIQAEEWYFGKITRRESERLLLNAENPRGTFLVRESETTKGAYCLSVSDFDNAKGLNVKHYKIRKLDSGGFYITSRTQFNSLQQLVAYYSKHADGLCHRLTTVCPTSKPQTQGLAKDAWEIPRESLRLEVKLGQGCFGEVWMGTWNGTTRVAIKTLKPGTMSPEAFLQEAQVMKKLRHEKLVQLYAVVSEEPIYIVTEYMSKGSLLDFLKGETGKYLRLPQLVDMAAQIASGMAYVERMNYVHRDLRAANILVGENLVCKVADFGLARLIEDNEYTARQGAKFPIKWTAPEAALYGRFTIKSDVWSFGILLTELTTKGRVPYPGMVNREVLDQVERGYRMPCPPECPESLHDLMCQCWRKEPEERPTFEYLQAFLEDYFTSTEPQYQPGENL

Structure (SMILES)	IC50 [nM]
CC(=O)N1CCc2[nH]c3nccc(Nc4c(Cl)ccc5c4OCO5)c3c2C1 [Example 15, 1-[4-(5-Chloro-benzo[1,3]dioxol-4-ylamino)-5,7,8,9-tetrahydro-dipyrido[2,3-b;3′,4′-d]pyrrol-6-yl]-ethanone]	11 to 100
O=C(c1ccccc1)N1CCc2[nH]c3nccc(Nc4c(Cl)ccc5c4OCO5)c3c2C1 [Example 67, [4-(5-Chloro-benzo[1,3]-dioxol-4-ylamino)-5,7,8,9-tetrahydro-dipyrido[2,3-b;3′,4′-d]pyrrol-6-yl]-phenyl-methanone]	101 to 1000
O=C(C1CC1)N1CCc2[nH]c3nccc(Nc4c(Cl)ccc5c4OCO5)c3c2C1 [Example 68, [4-(5-Chloro-benzo[1,3]-dioxol-4-ylamino)-5,7,8,9-tetrahydro-dipyrido[2,3-b;3′,4′-d]pyrrol-6-yl]-cyclopropyl-methanone]	101 to 1000
O=C(C1CCC1)N1CCc2[nH]c3nccc(Nc4c(Cl)ccc5c4OCO5)c3c2C1 [Example 69, [4-(5-Chloro-benzo[1,3]-dioxol-4-ylamino)-5,7,8,9-tetrahydro-dipyrido[2,3-b;3′,4′-d]pyrrol-6-yl]-cyclobutyl-methanone]	101 to 1000
O=C(C1CCCC1)N1CCc2[nH]c3nccc(Nc4c(Cl)ccc5c4OCO5)c3c2C1 [Example 70, [4-(5-Chloro-benzo[1,3]-dioxol-4-ylamino)-5,7,8,9-tetrahydro-dipyrido[2,3-b;3′,4′-d]pyrrol-6-yl]-cyclopentyl-methanone]	101 to 1000
O=C(C1CCCCC1)N1CCc2[nH]c3nccc(Nc4c(Cl)ccc5c4OCO5)c3c2C1 [Example 71, [4-(5-Chloro-benzo[1,3]-dioxol-4-ylamino)-5,7,8,9-tetrahydro-dipyrido[2,3-b;3′,4′-d]pyrrol-6-yl]-cyclohexyl-methanone]	101 to 1000
